Data: the supplement of paper PMC10307832

Each cell line was assayed with O=C(c1cc(Cc2n[nH]c(=O)c3ccccc23)ccc1F)N1CCN(C(=O)C2CC2)CC1 [Olaparib] + Nc1ncn([C@H]2C[C@H](O)[C@@H](CO)O2)c(=O)n1 [Decitabine] (partner 2 µM) (assay: relative viability (nuclei count vs DMSO), 5 days (fraction); higher = more cells survive). Conditions: first compound 0.08 µM.
Method in brief: (§1)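 Nuclei were stained with Hoechst during a one-step fixation (final 0.05% Triton X-100, 1% formaldehyde, 1 ug/ml Hoechst) carried out 5 days after dosing, then counted on 4× images. The cells, lung cancer lines in 1536-well plates, had been dosed by pin tool the day after seeding with one drug alone or a fixed anchor-drug dose plus five library-drug doses (not always all listed) in √10 steps. Relative viability is the nuclei count in treated wells divided by that in vehicle wells, and each value is the median of duplicate plates.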

Cell Line | relative viability
NCI-H23 | 0.336
NCI-H322M | 0.685
NCI-H358 | 0.148
NCI-H441 | 0.257
NCI-H460 | 0.114
NCI-H520 | 0.467
NCI-H596 | 0.915
NCI-H647 | 0.293
NCI-H650 | 0.266
NCI-H661 | 0.454
NCI-H838 | 0.416
NCI-H1355 | 0.37
NCI-H1395 | 0.64
NCI-H1437 | 0.458
NCI-H1651 | 0.356
NCI-H1666 | 0.778
NCI-H1734 | 0.418

Cell Line | relative viability
NCI-H1755 | 0.666
NCI-H1792 | 0.336
NCI-H1915 | 0.242
NCI-H1944 | 0.397
NCI-H1975 | 0.339
NCI-H1993 | 0.512
NCI-H2009 | 0.391
NCI-H2023 | 0.172
NCI-H2085 | 0.545
NCI-H2087 | 0.249
NCI-H2126 | 0.614
NCI-H2347 | 0.644
NCI-H2405 | 0.681
NCI-H3122 | 0.385
PC-3 [JPC-3] | 0.82
PC-14 | 0.153
RERF-LC-KJ | 0.703

Same assay, conditions: first compound 0.253 µM

Cell Line | relative viability
NCI-H23 | 0.313
NCI-H322M | 0.592
NCI-H358 | 0.157
NCI-H441 | 0.197
NCI-H460 | 0.128
NCI-H520 | 0.318
NCI-H596 | 0.9
NCI-H647 | 0.253
NCI-H650 | 0.293
NCI-H661 | 0.434
NCI-H838 | 0.32
NCI-H1355 | 0.345
NCI-H1395 | 0.654
NCI-H1437 | 0.391
NCI-H1651 | 0.277
NCI-H1666 | 0.604
NCI-H1734 | 0.311

Cell Line | relative viability
NCI-H1755 | 0.621
NCI-H1792 | 0.264
NCI-H1915 | 0.239
NCI-H1944 | 0.401
NCI-H1975 | 0.312
NCI-H1993 | 0.59
NCI-H2009 | 0.336
NCI-H2023 | 0.143
NCI-H2085 | 0.49
NCI-H2087 | 0.189
NCI-H2126 | 0.544
NCI-H2347 | 0.558
NCI-H2405 | 0.55
NCI-H3122 | 0.351
PC-14 | 0.124
RERF-LC-KJ | 0.637

Same assay, conditions: first compound 2.53 µM

Cell Line | relative viability
NCI-H23 | 0.259
NCI-H322M | 0.708
NCI-H358 | 0.23
NCI-H441 | 0.243
NCI-H460 | 0.0907
NCI-H520 | 0.365
NCI-H596 | 0.732
NCI-H647 | 0.227
NCI-H650 | 0.241
NCI-H661 | 0.4
NCI-H838 | 0.354
NCI-H1355 | 0.304
NCI-H1395 | 0.504
NCI-H1437 | 0.434
NCI-H1651 | 0.224
NCI-H1666 | 0.636
NCI-H1734 | 0.237

Cell Line | relative viability
NCI-H1755 | 0.577
NCI-H1792 | 0.234
NCI-H1915 | 0.234
NCI-H1944 | 0.336
NCI-H1975 | 0.331
NCI-H1993 | 0.666
NCI-H2009 | 0.337
NCI-H2023 | 0.135
NCI-H2085 | 0.43
NCI-H2087 | 0.262
NCI-H2126 | 0.541
NCI-H2347 | 0.531
NCI-H2405 | 0.458
NCI-H3122 | 0.259
PC-3 [JPC-3] | 0.761
PC-14 | 0.101
RERF-LC-KJ | 0.558

Same assay, conditions: first compound 8 µM

Cell Line | relative viability
NCI-H23 | 0.277
NCI-H322M | 0.596
NCI-H358 | 0.138
NCI-H441 | 0.188
NCI-H460 | 0.062
NCI-H520 | 0.261
NCI-H596 | 0.632
NCI-H647 | 0.152
NCI-H650 | 0.281
NCI-H661 | 0.382
NCI-H838 | 0.323
NCI-H1355 | 0.31
NCI-H1395 | 0.494
NCI-H1437 | 0.386
NCI-H1651 | 0.168
NCI-H1666 | 0.597
NCI-H1734 | 0.229

Cell Line | relative viability
NCI-H1755 | 0.562
NCI-H1792 | 0.19
NCI-H1915 | 0.196
NCI-H1944 | 0.273
NCI-H1975 | 0.248
NCI-H1993 | 0.636
NCI-H2009 | 0.32
NCI-H2023 | 0.126
NCI-H2085 | 0.46
NCI-H2087 | 0.167
NCI-H2126 | 0.542
NCI-H2347 | 0.516
NCI-H2405 | 0.486
NCI-H3122 | 0.256
PC-3 [JPC-3] | 0.741
PC-14 | 0.105
RERF-LC-KJ | 0.451

Each cell line was assayed with C[C@@H](Oc1cc(-c2cnn(C3CCNCC3)c2)cnc1N)c1c(Cl)ccc(F)c1Cl [Crizotinib] + Cc1nc(NC(=O)N2CCC[C@H]2C(N)=O)sc1-c1ccnc(C(C)(C)C(F)(F)F)c1 [Alpelisib] (partner 2 µM) in the same assay as above. Conditions: first compound 0.01 µM.
Method in brief: as §1

Cell Line | relative viability
NCI-H23 | 0.691
NCI-H322M | 0.791
NCI-H358 | 0.81
NCI-H441 | 0.795
NCI-H460 | 0.495
NCI-H520 | 0.726
NCI-H596 | 0.396
NCI-H647 | 1.08
NCI-H650 | 0.955
NCI-H661 | 0.665
NCI-H838 | 0.997
NCI-H1355 | 0.832
NCI-H1395 | 0.996
NCI-H1437 | 0.869
NCI-H1651 | 0.823
NCI-H1666 | 0.964
NCI-H1734 | 0.659
NCI-H1755 | 0.899
